In PubChem BioAssay AID1963445 (Molecular Pharmacology Branch, DTP, NCI, 2024):
Each block holds one compound with its values, some of them ahead of it.

Test system: MCF7 complex spheroid growth, % test/control
Assay: Anticancer human tumor MCF7 cell line growth inhibition [Asc];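 also: spheroids exposed to compounds for 7 days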;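 as to viability, T/C: 100% = DMSO vehicle control wells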
Conditions: for IC50: curve of first compound; for viability, T/C: stronger effect = lower value
Method: Multicellular complex tumor spheroid response to apoptosis pathway targeting inhibitors Alrizomadlin, Pelcitoclax, and Dasminapant in combination with a variety of drugs and investigational agents in selected tumor cell lines
The MDM2 inhibitor alrizomadlin, the Bcl-2/Bcl-xL inhibitor pelcitoclax, and the IAPs inhibitor dasminapant were evaluated both individually and in combination with standard of care and investigational anticancer small molecules within a complex spheroid model of solid tumors. . Complex spheroids include a stromal component modeled by human endothelial cells (HUVEC) and fibroblasts modeled by human mesenchymal stem cells (MSCs). The concentration ranges selected for each drug and investigational agent were based upon clinically achievable concentrations if the clinical Cmax of the agent was known.
Compounds. The drugs and investigational agents: alrizomadlin (APG-115; NSC831270), pelcitoclax (APG-1252; NSC835773), dasminapant (APG-1387;NSC834197), TAK-243 (NSC785004), copanlisib (NSC809693), olaparib (NSC753686), talazoparib (NSC767125), cobimetinib (NSC 768068), eltanexor (KPT-8602, NSC 794443), abemaciclib (NSC 768073), sotorasib (NSC818433), adagrasib (NSC 831453), MRTX-1133 (NSC 836407), Iadademestat (ORY1001, NSC 806812), and RMC-4630 (NSC839698), were obtained from the NCI Developmental Therapeutics Program Chemical Repository. The FDA-approved anticancer drug set is available from the Developmental Therapeutics Program at https://dtp.cancer.gov/organization/dscb/obtaining/available plates.htm. […] The stock solutions were prepared in dimethyl sulfoxide (DMSO, Sigma-Aldrich, St. Louis, MO, cat. D2650) at 800-fold the tested concentration and stored at -70 degrees C prior to their use. All drugs and investigational agents were tested over a range starting from a high concentration at or near the clinical Cmax and decreasing in half-log increments. If the clinical Cmax for an agent had not been determined, the highest concentration tested was 10 microM.
The patient-derived cancer (PDC) cell lines include five colon adenocarcinomas: 186277-243-T-J2-PDC, 616215-338-R-J1-PDC, 439559-082-T-J2-PDC, 463943-066-T-J2-PDC, and 519858-162-T-J1-PDC; three pancreatic carcinomas: 323965-272-R-J2-PDC, 521955-158-R6-J3-PDC, and 521955-158-R2-J5-PDC; two uterine sarcomas: 327498-152-R-J2-PDC and 993429-296-R-J1-PDC; two rhabdomyosarcomas: 755483-174-R-J1-PDC and 772245-204-R-J1-PDC; two soft tissue sarcomas: 126254-015-R-J1-PDC and 494315-158-R-J1-PDC; two malignant fibrous histiocytomas: 317291-083-R-J1-PDC and 596521-263-R-J1-PDC; two breast carcinomas: 171881-019-R-J1-PDC and 885512-296-R-J2-PDC; and one ovarian carcinoma: 6556581-035-R-J-PDC were obtained from the NCI PDMR, (https://pdmr.cancer.gov). The established cell lines HSSY-2 synovial sarcoma (RRID:CVCL 8719), SYO-1 synovial sarcoma (RRID:CVCL_7146), MPNST malignant peripheral neural sheath tumor were obtained from the Sloan Kettering Institute. The following established cell lines were purchased from the American Type Culture Collection (ATCC, Manassas, VA), Sor the received from the NCI repository:, PANC-1 pancreatic carcinoma (CRL-1469, RRID:CVCL_0480), OVCAR-5 ovarian carcinoma (RRID:CVCL_1628), OVCAR-8 ovarian carcinoma (RRID:CVCL_1629), , MCF-7 breast carcinoma (CRL-12584, RRID:CVCL_0031), MDA-MB-231 breast carcinoma (CRL-12532, RRID:CVCL_0062), NCI-H1876 small cell lung carcinoma (CRL-5902, RRID:CVCL_1503), NCI-H510A small cell lung carcinoma (HTB-184, RRID:CVCL_1565), NCI-H1417 (CRL-5869, RRID:CVCL_1469), and NCI-H196 small cell lung carcinoma (CRL-5823, RRID:CVCL_1509). Dr. Peter Houghton (Greehey Children's Cancer Research Institute, University of Texas Health Science Center, San Antonio, TX) provided Rh-18 rhabdomyosarcoma (RRID:CVCL_1659). Pooled donor human umbilical vein endothelial cells (HUVEC, Lonza, cat. CC-2519) and human mesenchymal stem cells (hMSC, Lonza, cat. PT-2501) were purchased from Lonza (Walkersville, MD).
Cell Culture. […]

- IC50 (second compound 0.00949 µM): 0.05 µM
- IC50 (second compound 0.03 µM): 0.0153 µM
- IC50 (second compound 0.0949 µM): < 0.000949 µM
- IC50 (second compound 0.3 µM): < 0.000949 µM
- IC50 (second compound 0.949 µM): < 0.000949 µM
- IC50 (second compound 3 µM): < 0.000949 µM
Structure (SMILES): NC(=O)C(=Cn1cnc(-c2cc(C(F)(F)F)cc(C(F)(F)F)c2)n1)c1cncnc1 + CCN1C(C(=O)NC23CCC(C(=O)O)(CC2)CC3)C(c2cccc(Cl)c2F)C2(C(=O)Nc3cc(Cl)ccc32)C12CCCCC2
- viability, T/C (second compound 0.00949 µM, first compound 0.000949 µM): 109%
- viability, T/C (second compound 0.00949 µM, first compound 0.003 µM): 107%
- viability, T/C (second compound 0.00949 µM, first compound 0.00949 µM): 86.7%
- viability, T/C (second compound 0.00949 µM, first compound 0.03 µM): 73.6%
- viability, T/C (second compound 0.00949 µM, first compound 0.0949 µM): 23.7%
- viability, T/C (second compound 0.00949 µM, first compound 0.3 µM): 14.1%
- viability, T/C (second compound 0.03 µM, first compound 0.000949 µM): 89.2%
- viability, T/C (second compound 0.03 µM, first compound 0.003 µM): 75.2%
- viability, T/C (second compound 0.03 µM, first compound 0.00949 µM): 55.6%
- viability, T/C (second compound 0.03 µM, first compound 0.03 µM): 44.4%
- viability, T/C (second compound 0.03 µM, first compound 0.0949 µM): 17.8%
- viability, T/C (second compound 0.03 µM, first compound 0.3 µM): 14.3%
- viability, T/C (second compound 0.0949 µM, first compound 0.000949 µM): 45.5%
- viability, T/C (second compound 0.0949 µM, first compound 0.003 µM): 48%
- viability, T/C (second compound 0.0949 µM, first compound 0.00949 µM): 30.4%
- viability, T/C (second compound 0.0949 µM, first compound 0.03 µM): 12.4%
- viability, T/C (second compound 0.0949 µM, first compound 0.0949 µM): 9.36%
- viability, T/C (second compound 0.0949 µM, first compound 0.3 µM): 12.6%
- viability, T/C (second compound 0.3 µM, first compound 0.000949 µM): 25.9%
- viability, T/C (second compound 0.3 µM, first compound 0.003 µM): 22.5%
- viability, T/C (second compound 0.3 µM, first compound 0.00949 µM): 16%
- viability, T/C (second compound 0.3 µM, first compound 0.03 µM): 13.9%
- viability, T/C (second compound 0.3 µM, first compound 0.0949 µM): 11.8%
- viability, T/C (second compound 0.3 µM, first compound 0.3 µM): 13.4%
- viability, T/C (second compound 0.949 µM, first compound 0.000949 µM): 14.8%
- viability, T/C (second compound 0.949 µM, first compound 0.003 µM): 11%
- viability, T/C (second compound 0.949 µM, first compound 0.00949 µM): 9.57%
- viability, T/C (second compound 0.949 µM, first compound 0.03 µM): 10.6%
- viability, T/C (second compound 0.949 µM, first compound 0.0949 µM): 14%
- viability, T/C (second compound 0.949 µM, first compound 0.3 µM): 14.7%
- viability, T/C (second compound 3 µM, first compound 0.000949 µM): 13.1%
- viability, T/C (second compound 3 µM, first compound 0.003 µM): 10.4%
- viability, T/C (second compound 3 µM, first compound 0.00949 µM): 10.3%
- viability, T/C (second compound 3 µM, first compound 0.03 µM): 13.8%
- viability, T/C (second compound 3 µM, first compound 0.0949 µM): 16.1%
- viability, T/C (second compound 3 µM, first compound 0.3 µM): 20.5%

- IC50 (second compound 0.0316 µM): > 1 µM
- IC50 (second compound 0.1 µM): > 1 µM
- IC50 (second compound 0.316 µM): > 1 µM
- IC50 (second compound 1 µM): > 1 µM
- IC50 (second compound 3.16 µM): > 1 µM
- IC50 (second compound 10 µM): > 1 µM
Structure (SMILES): CCN1CCN(Cc2ccc(Nc3ncc(F)c(-c4cc(F)c5nc(C)n(C(C)C)c5c4)n3)nc2)CC1 + Cc1c(S(C)(=O)=O)c(-c2cc(F)cc(N3CCN(c4ccc(NS(=O)(=O)c5ccc(NC(CCN6CCC(C(=O)OCCCP(=O)(O)O)CC6)CSc6ccccc6)c(S(=O)(=O)C(F)(F)F)c5)cc4)CC3)c2)c(-c2ccc(Cl)cc2)n1C(C)C
- viability, T/C (second compound 0.0316 µM, first compound 0.00316 µM): 101%
- viability, T/C (second compound 0.0316 µM, first compound 0.01 µM): 96.7%
- viability, T/C (second compound 0.0316 µM, first compound 0.0316 µM): 106%
- viability, T/C (second compound 0.0316 µM, first compound 0.1 µM): 95.6%
- viability, T/C (second compound 0.0316 µM, first compound 0.316 µM): 91.4%
- viability, T/C (second compound 0.0316 µM, first compound 1 µM): 72.8%
- viability, T/C (second compound 0.1 µM, first compound 0.00316 µM): 92.8%
- viability, T/C (second compound 0.1 µM, first compound 0.01 µM): 86%
- viability, T/C (second compound 0.1 µM, first compound 0.0316 µM): 86.3%
- viability, T/C (second compound 0.1 µM, first compound 0.1 µM): 85.2%
- viability, T/C (second compound 0.1 µM, first compound 0.316 µM): 101%
- viability, T/C (second compound 0.1 µM, first compound 1 µM): 87.3%
- viability, T/C (second compound 0.316 µM, first compound 0.00316 µM): 100%
- viability, T/C (second compound 0.316 µM, first compound 0.01 µM): 94.2%
- viability, T/C (second compound 0.316 µM, first compound 0.0316 µM): 98.8%
- viability, T/C (second compound 0.316 µM, first compound 0.1 µM): 95%
- viability, T/C (second compound 0.316 µM, first compound 0.316 µM): 94.6%
- viability, T/C (second compound 0.316 µM, first compound 1 µM): 69.1%
- viability, T/C (second compound 1 µM, first compound 0.00316 µM): 91.6%
- viability, T/C (second compound 1 µM, first compound 0.01 µM): 98.9%
- viability, T/C (second compound 1 µM, first compound 0.0316 µM): 79.5%
- viability, T/C (second compound 1 µM, first compound 0.1 µM): 88.4%
- viability, T/C (second compound 1 µM, first compound 0.316 µM): 103%
- viability, T/C (second compound 1 µM, first compound 1 µM): 69.2%
- viability, T/C (second compound 3.16 µM, first compound 0.00316 µM): 90.2%
- viability, T/C (second compound 3.16 µM, first compound 0.01 µM): 85.7%
- viability, T/C (second compound 3.16 µM, first compound 0.0316 µM): 92.8%
- viability, T/C (second compound 3.16 µM, first compound 0.1 µM): 88.5%
- viability, T/C (second compound 3.16 µM, first compound 0.316 µM): 92.1%
- viability, T/C (second compound 3.16 µM, first compound 1 µM): 73.1%
- viability, T/C (second compound 10 µM, first compound 0.00316 µM): 136%
- viability, T/C (second compound 10 µM, first compound 0.01 µM): 124%
- viability, T/C (second compound 10 µM, first compound 0.0316 µM): 182%
- viability, T/C (second compound 10 µM, first compound 0.1 µM): 134%
- viability, T/C (second compound 10 µM, first compound 0.316 µM): 114%
- viability, T/C (second compound 10 µM, first compound 1 µM): 61.6%
